Data on 16 compounds can be found in patent US6534524B1, “Indazole compounds and pharmaceutical compositions for inhibiting protein kinases, and methods for their use” (Agouron Pharmaceuticals, Inc., priority 1999, dated 2003).

A short description of data set [1]: Human liver microsome (HLM) assay. In kind it is in vitro ADME. The conditions noted are these: human liver microsomes, 5 μM test compound. Here is the method: Human Liver Microsome (HLM) Assay Compound metabolism in human liver microsomes was measured by LC-MS analytical assay procedures as follows. […] (3 tubes per test compound-triplicate). […] The samples were then transferred to separate polypropylene microcentrifuge tubes and centrifuged at 14000 g for 10 min. (Fisher Micro […] M0017580). For each replicate (#1-3) at each timepoint (0 and 2 h), an aliquot sample of each test compound was combined into a single HPLC vial insert (6 total samples) for LC-MS analysis, which is described below.

The nature of data set [2]: Determination of inhibitor concentration in mouse plasma after intraperitoneal and oral dosing. In kind it is in vivo. The procedure, abridged:
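Plasma levels quantified by HPLC or LC-MS using a standard curve prepared in mouse plasma, following ethyl acetate extraction with internal standard and sodium hydroxide. Sampling at 0.5, 1, 4 h (ocular bleed) and 7 h (cardiac puncture) after oral or intraperitoneal dosing.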

[3] abbreviates: IP, 25 mg/kg, vehicle PEG400:H2O pH 2.3 30:70.
Where [4] appears, read: PO, 50 mg/kg, vehicle PEG400:H2O pH 2.3 30:70.
[5] abbreviates: female, IP, 25 mg/kg, vehicle PEG400:H2O pH 2.3 30:70, read-out: Cmin (7 hr conc.).
Setting [6] is: female, PO, 50 mg/kg, vehicle PEG400:H2O pH 2.3 30:70, read-out: Cmin (7 hr conc.).
Setting [7] is: PO, 25 mg/kg, vehicle PEG400:H2O pH 2.3 30:70.
The mark [8] stands for this setting: female, PO, 25 mg/kg, vehicle PEG400:H2O pH 2.3 30:70, read-out: Cmin (7 hr conc.).
Where [9] appears, read: IP, 25 mg/kg, vehicle PEG400:H2O pH 2.3 60:40.
The mark [10] stands for this setting: PO, 50 mg/kg, vehicle PEG400:H2O pH 2.3 60:40.

Read-outs that look alike come from different tables or passages of the source.

`CCCNC(=O)c1ccccc1Sc1ccc2c(/C=C/c3ccccn3)n[nH]c2c1` [Example 35(a), 6-[2-(n-Propylcarbamoyl)phenylsulfanyl]-3-E-[2-(pyridin-2-yl)ethenyl]-1H-indazole]: the “% remain (HLM, 2 h)” value in data set [1] is 33%. Also, in data set [2] (setting [3]), the AUClast is 2032 ng·h/mL, the Cmax was 2138 ng/mL and the “plasma half-life (T1/2)” value was 1.4 h. For the same compound, in data set [2] (setting [4]), the AUClast amounted to 2445 ng·h/mL, the Cmax worked out at 1780 ng/mL and the “plasma half-life (T1/2)” value amounted to 0.9 h. For the same compound, in data set [2] (setting [5]), the concentration at 7 h was 24 ng/mL. Moreover, in data set [2] (setting [6]), the concentration at 7 h amounted to 10 ng/mL.

As for `C#CCNC(=O)c1ccccc1Sc1ccc2c(/C=C/c3ccccn3)n[nH]c2c1` [Example 35(cc), 6-[2-(2-Propynylcarbamoyl)phenylsulfanyl]-3-E-[2-(pyridin-2-yl)ethenyl]-1H-indazole], the “% remain (HLM, 2 h)” value in data set [1] was 31%. Besides, the AUClast in data set [2] (setting [3]) was found to be 2223 ng·h/mL; in data set [2] (setting [4]) it was 1718 ng·h/mL. The results for the “plasma half-life (T1/2)” value in data set [2] (setting [3]) and in data set [2] (setting [4]) were 1.4 h and 0.9 h, respectively. The concentration at 7 h was found to be 6 ng/mL in data set [2] (setting [5]) and 5 ng/mL in data set [2] (setting [6]).

For the compound `COc1ccc(CNC(=O)c2ccccc2Sc2ccc3c(/C=C/c4ccccn4)n[nH]c3c2)cc1` [Example 35(g)], the “% remain (HLM, 2 h)” value in data set [1] turned out to be 53%. In data set [2] (setting [7]), the AUClast came to 231 ng·h/mL and the “plasma half-life (T1/2)” value came to 16.1 h. Moreover, the concentration at 7 h in data set [2] (setting [8]) turned out to be 28 ng/mL.

In the case of `O=C(c1cccc(NC(=O)c2ccccn2)c1)c1ccc2c(/C=C/c3ccccc3)n[nH]c2c1` [Example 19(k), 6-[3-(Pyridin-2-ylcarboxamido)benzoyl]-3-E-styryl-1H-indazole], the “% remain (HLM, 2 h)” value in data set [1] is 58%. Besides, in data set [2] (setting [9]), the AUClast turned out to be 428 ng·h/mL, the Cmax stood at 149 ng/mL and the “plasma half-life (T1/2)” value was found to be 2.2 h. Further, in data set [2] (setting [10]), the AUClast was 19 ng·h/mL, the Cmax was 8 ng/mL and the “plasma half-life (T1/2)” value was found to be 2.2 h. In addition, in data set [2] (female, IP, 25 mg/kg, vehicle PEG400:H2O pH 2.3 60:40, read-out: Cmin (7 hr conc.)), the concentration at 7 h amounted to 15 ng/mL. Also, in data set [2] (female, PO, 50 mg/kg, vehicle PEG400:H2O pH 2.3 60:40, read-out: Cmin (7 hr conc.)), the concentration at 7 h came out at 4 ng/mL.

For the compound `CCNC(=O)c1ccccc1Sc1ccc2c(/C=C/c3ccccn3)n[nH]c2c1` [Example 35(x), 6-[2-(Ethylcarbamoyl)phenylsulfanyl]-3-E-[2-(pyridin-2-yl)ethenyl]-1H-indazole], the “% remain (HLM, 2 h)” value in data set [1] turned out to be 37%. The AUClast in data set [2] (setting [3]) was 951 ng·h/mL; in data set [2] (setting [4]), 3516 ng·h/mL. Moreover, the figures for the “plasma half-life (T1/2)” value in data set [2] (setting [3]) and in data set [2] (setting [4]) were 3.2 h and 0.9 h, respectively. Also, the concentration at 7 h in data set [2] (setting [5]) came to 48 ng/mL; in data set [2] (setting [6]), 16 ng/mL.

In the case of `C=C(C)CNC(=O)c1ccccc1Sc1ccc2c(/C=C/c3ccccn3)n[nH]c2c1` [Example 35(ee), 6-[2-(2-Methyl-2-propenylcarbamoyl)phenylsulfanyl]-3-E-[2-(pyridin-2-yl)ethenyl]-1H-indazole], the “% remain (HLM, 2 h)” value in data set [1] is reported as 13%. Further, the AUClast in data set [2] (setting [3]) was determined as 546 ng·h/mL; in data set [2] (setting [7]) it was 157 ng·h/mL. For the same compound, the “plasma half-life (T1/2)” value in data set [2] (setting [3]) was found to be 1.5 h; in data set [2] (setting [7]), 14.6 h. The concentration at 7 h in data set [2] (setting [5]) worked out at 2 ng/mL; in data set [2] (setting [8]), 9 ng/mL.

Consider `O=C(NC1CCC1)c1ccccc1Sc1ccc2c(/C=C/c3ccccn3)n[nH]c2c1` [Example 35(c), 6-[2-(Cyclobutylcarbamoyl)phenylsulfanyl]-3-E-[2-(pyridin-2-yl)ethenyl]-1H-indazole], for which the “% remain (HLM, 2 h)” value in data set [1] was 17%. In data set [2] (setting [3]), the AUClast came to 9408 ng·h/mL, the Cmax is 1976 ng/mL and the “plasma half-life (T1/2)” value was 3.2 h. In data set [2] (setting [4]), the AUClast amounted to 4744 ng·h/mL and the “plasma half-life (T1/2)” value stood at 4.9 h. Moreover, the concentration at 7 h in data set [2] (setting [5]) is 465 ng/mL. The concentration at 7 h in data set [2] (setting [6]) amounted to 321 ng/mL.

As to `Cn1ccnc1/C=N/NC(=O)c1ccccc1Sc1ccc2c(/C=C/c3ccccn3)n[nH]c2c1` [Example 36(a)], the “% remain (HLM, 2 h)” value in data set [1] is given as 58%. Further, in data set [2] (setting [7]), the AUClast stood at 605 ng·h/mL and the “plasma half-life (T1/2)” value was 1.5 h. For the same compound, in data set [2] (setting [8]), the concentration at 7 h came out at 17 ng/mL.

Turning to `COc1cccc(C(=O)Nc2cccc(C(=O)c3ccc4c(/C=C/c5ccccn5)n[nH]c4c3)c2)c1` [Example 41(bb), 6-[3-(3-Methoxybenzamido)benzoyl]-3-E-[2-(pyridin-2-yl)ethenyl]-1H-indazole], in data set [1], the “% remain (HLM, 2 h)” value was 110%. In data set [2] (setting [4]), the AUClast is 2178 ng·h/mL, the Cmax was determined as 596 ng/mL and the “plasma half-life (T1/2)” value turned out to be 2.0 h. Further, in data set [2] (setting [6]), the concentration at 7 h came to 75 ng/mL.

For `CNC(=O)c1ccccc1Sc1ccc2c(/C=C/c3ccccn3)n[nH]c2c1` [Example 33(a), 6-[2-(methylcarbamoyl)phenylsulfanyl]-3-E-[2-(pyridin-2-yl)ethenyl]indazole], the “% remain (HLM, 2 h)” value in data set [1] is given as 29%. Moreover, the AUClast in data set [2] (setting [3]) is 13813 ng·h/mL; in data set [2] (setting [4]), 19067 ng·h/mL. For the same compound, the highest concentration (Cmax) in data set [2] (setting [3]) came to 13794 ng/mL; in data set [2] (setting [4]) it was 23562 ng/mL; in data set [2] (female, PO, 25 mg/kg, vehicle 0.5% CMC, read-out: Cmax) it was 721 ng/mL; in data set [2] (female, PO, 100 mg/kg, vehicle 0.5% CMC, read-out: Cmax) it was 3560 ng/mL.

In the case of `CC(C)=CC(=O)Nc1cccc(C(=O)c2ccc3c(/C=C/c4ccccn4)n[nH]c3c2)c1` [Example 41(dd), 6-[3(3,3-Dimethylacrylamido)benzoyl]-3-E-[2-(pyridin-2-yl)ethenyl]-1H-indazole], the “% remain (HLM, 2 h)” value in data set [1] is reported as 7%. Further, in data set [2] (setting [7]), the AUClast amounted to 654 ng·h/mL and the “plasma half-life (T1/2)” value worked out at 0.8 h. Also, the concentration at 7 h in data set [2] (setting [8]) worked out at 1 ng/mL.

For `COc1cccc(CNC(=O)c2ccccc2Sc2ccc3c(/C=C/c4ccccn4)n[nH]c3c2)c1` [Example 35(aa)], the “% remain (HLM, 2 h)” value in data set [1] is listed as 15%. Besides, in data set [2] (setting [7]), the AUClast was 4036 ng·h/mL and the “plasma half-life (T1/2)” value amounted to 2.1 h. In data set [2] (setting [8]), the concentration at 7 h amounted to 106 ng/mL.

In the case of `Cc1ccc(CNC(=O)c2ccccc2Sc2ccc3c(/C=C/c4ccccn4)n[nH]c3c2)o1` [Example 35(h), 6-[2-((5-Methylfur-2-yl)methylcarbamoyl)phenylsulfanyl]-3-E-[2-(pyridin-2-yl)ethenyl]-1H-indazole], the “% remain (HLM, 2 h)” value in data set [1] stood at 9%. For the same compound, in data set [2] (setting [3]), the AUClast stood at 59 ng·h/mL and the “plasma half-life (T1/2)” value came to 1.5 h. In data set [2] (setting [4]), this compound showed an AUClast of 26 ng·h/mL and a Cmax of 7 ng/mL. In addition, the concentration at 7 h in data set [2] (setting [5]) was determined as 1 ng/mL. For the same compound, in data set [2] (setting [6]), the concentration at 7 h came to 2 ng/mL.

Consider `CC(C)ONC(=O)c1cccc(F)c1Sc1ccc2c(/C=C/c3ccccn3)n[nH]c2c1` [Example 37(c), 6-[6-Fluoro-2-(isopropoxycarbamoyl)phenylsulfanyl]-3-E-[2-(pyridin-2-yl)ethenyl]-1H-indazole], for which the “% remain (HLM, 2 h)” value in data set [1] turned out to be 21%. In data set [2] (setting [7]), the AUClast is 2419 ng·h/mL and the “plasma half-life (T1/2)” value was found to be 1.2 h. Moreover, the concentration at 7 h in data set [2] (setting [8]) was 9 ng/mL.

Consider `Cc1cc(C(=O)Nc2cc(C(=O)c3ccc4c(/C=C/c5ccccn5)n[nH]c4c3)ccc2C)n(C(C)C)n1` [Example 41(kk), 6-[3-((1-Isopropyl-3-methyl-1H-pyrazol-5-yl)carboxamido)-4-methylbenzoyl]-3-E-[2-(pyridin-2-yl)ethenyl]-1H-indazole], for which the “% remain (HLM, 2 h)” value in data set [1] turned out to be 63%. Besides, in data set [2] (setting [7]), the AUClast was 11612 ng·h/mL and the “plasma half-life (T1/2)” value worked out at 2.0 h. Moreover, the concentration at 7 h in data set [2] (setting [8]) is 415 ng/mL.

As to `CCOCCNC(=O)c1ccccc1Sc1ccc2c(/C=C/c3ccccn3)n[nH]c2c1` [Example 35(z), 6-[2-(2-(Ethoxy)ethylcarbamoyl)phenylsulfanyl]-3-E-[2-(pyridin-2-yl)ethenyl]-1H-indazole], in data set [1], the “% remain (HLM, 2 h)” value is listed as 2%. Further, the AUClast in data set [2] (setting [3]) stood at 837 ng·h/mL; in data set [2] (setting [4]) it was 1001 ng·h/mL. Also, the “plasma half-life (T1/2)” value in data set [2] (setting [3]) was 1.8 h; in data set [2] (setting [4]) it was 1.6 h. Besides, the concentration at 7 h in data set [2] (setting [5]) was 22 ng/mL; in data set [2] (setting [6]), 14 ng/mL.
